Organism: Rattus norvegicus
Experiment: DrugMatrix - Regimen: Daily Repeat
Assay type: toxicity, organism-based, Sprague-Dawley
Parameters: regimen Daily Repeat, gender Male, age 6-8 weeks
Details: in vivo, po, route oral GAVAGE, vehicle .5 % CMC; for BASOPHIL / EOSINOPHIL / ERYTHROCYTE COUNT / HEMATOCRIT / HEMOGLOBIN / LEUKOCYTE COUNT / LYMPHOCYTE / MEAN CORPUSCULAR HEMOGLOBIN / MEAN CORPUSCULAR HEMOGLOBIN CONCENTRATION / MEAN CORPUSCULAR VOLUME / MONOCYTE / NEUTROPHIL / PLATELET COUNT: tissue Blood; for ALANINE AMINOTRANSFERASE / ALBUMIN / ALKALINE PHOSPHATASE / ASPARTATE AMINOTRANSFERASE / BLOOD UREA NITROGEN / CHLORIDE / CHOLESTEROL / CREATINE PHOSPHOKINASE / CREATININE / GLUCOSE / PHOSPHORUS / POTASSIUM / SODIUM / TOTAL BILIRUBIN / TOTAL PROTEIN: tissue Plasma
[1] = 0 mg/kg, 72 h, dose level Control, time 3 day
[2] = 0 mg/kg, 120 h, dose level Control, time 5 day
[3] = 75 mg/kg, 72 h, dose level High, time 3 day
[4] = 75 mg/kg, 120 h, dose level High, time 5 day
[5] = […], 72 h, dose 7.5 mg/Kg, dose level Low, time 3 day
[6] = […], 120 h, dose 7.5 mg/Kg, dose level Low, time 5 day

For `COc1ccc(C2C(=O)c3ccccc3C2=O)cc1` [ANISINDIONE], the BASOPHIL [1] was 0%, the EOSINOPHIL [1] was 0% and the “ERYTHROCYTE COUNT” value [1] was 6.19 x10E6/uL. The HEMATOCRIT [1] was 36.94%, the HEMOGLOBIN [1] was 14.58 G/DL and the “LEUKOCYTE COUNT” value [1] was 11.54 x10E3/uL. The LYMPHOCYTE [1] was 84.8%, the “MEAN CORPUSCULAR HEMOGLOBIN” value [1] was 23.58 pg and the “MEAN CORPUSCULAR HEMOGLOBIN CONCENTRATION” value [1] was 39.44 G/DL. For the same compound, the “MEAN CORPUSCULAR VOLUME” value [1] was 59.76 fL, the MONOCYTE [1] was 1.4% and the NEUTROPHIL [1] was 13.8%. The “PLATELET COUNT” value [1] was 1068.8 x10E3/uL, the “ALANINE AMINOTRANSFERASE” value [1] was 38.17 u/L and the ALBUMIN [1] was 3.88 G/DL. The “ALKALINE PHOSPHATASE” value [1] was 391.33 u/L, the “ASPARTATE AMINOTRANSFERASE” value [1] was 69.83 u/L and the “BLOOD UREA NITROGEN” value [1] was 15 mg/dL. The CHLORIDE [1] was 104.17 MEQ/L, the CHOLESTEROL [1] was 72.17 mg/dL and the “CREATINE PHOSPHOKINASE” value [1] was 174.33 u/L. For the same compound, the CREATININE [1] was 0.58 mg/dL, the GLUCOSE [1] was 192.67 mg/dL and the PHOSPHORUS [1] was 10.52 mg/dL. The POTASSIUM [1] was 6.8 MEQ/L, the SODIUM [1] was 149.67 MEQ/L and the “TOTAL BILIRUBIN” value [1] was 0.78 mg/dL. For the same compound, the “TOTAL PROTEIN” value [1] was 6.28 G/DL, the BASOPHIL [2] was 0% and the EOSINOPHIL [2] was 0.17%. The “ERYTHROCYTE COUNT” value [2] was 6.72 x10E6/uL, the HEMATOCRIT [2] was 40.02% and the HEMOGLOBIN [2] was 15.83 G/DL. For the same compound, the “LEUKOCYTE COUNT” value [2] was 9.5 x10E3/uL, the LYMPHOCYTE [2] was 87.17% and the “MEAN CORPUSCULAR HEMOGLOBIN” value [2] was 23.57 pg. For the same compound, the “MEAN CORPUSCULAR HEMOGLOBIN CONCENTRATION” value [2] was 39.62 G/DL, the “MEAN CORPUSCULAR VOLUME” value [2] was 59.55 fL and the MONOCYTE [2] was 1.67%. For the same compound, the NEUTROPHIL [2] was 11%, the “PLATELET COUNT” value [2] was 1053.67 x10E3/uL and the “ALANINE AMINOTRANSFERASE” value [2] was 26.33 u/L. For the same compound, the ALBUMIN [2] was 4.02 G/DL, the “ALKALINE PHOSPHATASE” value [2] was 316.67 u/L and the “ASPARTATE AMINOTRANSFERASE” value [2] was 61.33 u/L. The “BLOOD UREA NITROGEN” value [2] was 18.67 mg/dL, the CHLORIDE [2] was 108 MEQ/L and the CHOLESTEROL [2] was 65.17 mg/dL. The “CREATINE PHOSPHOKINASE” value [2] was 161.17 u/L, the CREATININE [2] was 0.75 mg/dL and the GLUCOSE [2] was 177.33 mg/dL. The PHOSPHORUS [2] was 9.72 mg/dL, the POTASSIUM [2] was 6.18 MEQ/L and the SODIUM [2] was 150.5 MEQ/L. The “TOTAL BILIRUBIN” value [2] was 0.68 mg/dL, the “TOTAL PROTEIN” value [2] was 6.55 G/DL and the BASOPHIL [3] was 0%. The EOSINOPHIL [3] was 0.33%, the “ERYTHROCYTE COUNT” value [3] was 6.08 x10E6/uL and the HEMATOCRIT [3] was 36.9%. For the same compound, the HEMOGLOBIN [3] was 14.87 G/DL, the “LEUKOCYTE COUNT” value [3] was 12.97 x10E3/uL and the LYMPHOCYTE [3] was 73.67%. The “MEAN CORPUSCULAR HEMOGLOBIN” value [3] was 24.43 pg, the “MEAN CORPUSCULAR HEMOGLOBIN CONCENTRATION” value [3] was 40.3 G/DL and the “MEAN CORPUSCULAR VOLUME” value [3] was 60.63 fL. For the same compound, the MONOCYTE [3] was 4.67%, the NEUTROPHIL [3] was 21.33% and the “PLATELET COUNT” value [3] was 1074.33 x10E3/uL. For the same compound, the “ALANINE AMINOTRANSFERASE” value [3] was 32.33 u/L, the ALBUMIN [3] was 3.7 G/DL and the “ALKALINE PHOSPHATASE” value [3] was 312.67 u/L. The “ASPARTATE AMINOTRANSFERASE” value [3] was 70.67 u/L, the “BLOOD UREA NITROGEN” value [3] was 16.67 mg/dL and the CHLORIDE [3] was 102.67 MEQ/L. The CHOLESTEROL [3] was 62.67 mg/dL, the “CREATINE PHOSPHOKINASE” value [3] was 163 u/L and the CREATININE [3] was 0.7 mg/dL. It also gave a GLUCOSE [3] of 161.33 mg/dL, a PHOSPHORUS [3] of 10.17 mg/dL and a POTASSIUM [3] of 6.4 MEQ/L. The SODIUM [3] was 147 MEQ/L, the “TOTAL BILIRUBIN” value [3] was 0.57 mg/dL and the “TOTAL PROTEIN” value [3] was 5.87 G/DL. For the same compound, the BASOPHIL [4] was 0%, the EOSINOPHIL [4] was 0.5% and the “ERYTHROCYTE COUNT” value [4] was 6.19 x10E6/uL. The HEMATOCRIT [4] was 36.1%, the HEMOGLOBIN [4] was 14.4 G/DL and the “LEUKOCYTE COUNT” value [4] was 13.5 x10E3/uL. The LYMPHOCYTE [4] was 85.5%, the “MEAN CORPUSCULAR HEMOGLOBIN” value [4] was 23.25 pg and the “MEAN CORPUSCULAR HEMOGLOBIN CONCENTRATION” value [4] was 39.9 G/DL. The “MEAN CORPUSCULAR VOLUME” value [4] was 58.3 fL, the MONOCYTE [4] was 1.5% and the NEUTROPHIL [4] was 12.5%. For the same compound, the “PLATELET COUNT” value [4] was 1096 x10E3/uL, the “ALANINE AMINOTRANSFERASE” value [4] was 36.5 u/L and the ALBUMIN [4] was 3.75 G/DL. For the same compound, the “ALKALINE PHOSPHATASE” value [4] was 318 u/L, the “ASPARTATE AMINOTRANSFERASE” value [4] was 61.5 u/L and the “BLOOD UREA NITROGEN” value [4] was 14 mg/dL. For the same compound, the CHLORIDE [4] was 104 MEQ/L, the CHOLESTEROL [4] was 40.5 mg/dL and the “CREATINE PHOSPHOKINASE” value [4] was 138.5 u/L. For the same compound, the CREATININE [4] was 0.55 mg/dL, the GLUCOSE [4] was 161 mg/dL and the PHOSPHORUS [4] was 10.3 mg/dL. The POTASSIUM [4] was 6.15 MEQ/L, the SODIUM [4] was 150 MEQ/L and the “TOTAL BILIRUBIN” value [4] was 0.55 mg/dL. For the same compound, the “TOTAL PROTEIN” value [4] was 6.2 G/DL, the BASOPHIL [5] was 0% and the EOSINOPHIL [5] was 1%. The “ERYTHROCYTE COUNT” value [5] was 6.37 x10E6/uL, the HEMATOCRIT [5] was 38.8% and the HEMOGLOBIN [5] was 15.33 G/DL. For the same compound, the “LEUKOCYTE COUNT” value [5] was 10.33 x10E3/uL, the LYMPHOCYTE [5] was 83.67% and the “MEAN CORPUSCULAR HEMOGLOBIN” value [5] was 24.07 pg. For the same compound, the “MEAN CORPUSCULAR HEMOGLOBIN CONCENTRATION” value [5] was 39.53 G/DL, the “MEAN CORPUSCULAR VOLUME” value [5] was 60.9 fL and the MONOCYTE [5] was 3.33%. For the same compound, the NEUTROPHIL [5] was 12%, the “PLATELET COUNT” value [5] was 1127.67 x10E3/uL and the “ALANINE AMINOTRANSFERASE” value [5] was 31.33 u/L. For the same compound, the ALBUMIN [5] was 3.87 G/DL, the “ALKALINE PHOSPHATASE” value [5] was 294.67 u/L and the “ASPARTATE AMINOTRANSFERASE” value [5] was 62.33 u/L. The “BLOOD UREA NITROGEN” value [5] was 14.33 mg/dL, the CHLORIDE [5] was 103.67 MEQ/L and the CHOLESTEROL [5] was 76 mg/dL. For the same compound, the “CREATINE PHOSPHOKINASE” value [5] was 156 u/L, the CREATININE [5] was 0.7 mg/dL and the GLUCOSE [5] was 185.67 mg/dL. For the same compound, the PHOSPHORUS [5] was 12.2 mg/dL, the POTASSIUM [5] was 7.33 MEQ/L and the SODIUM [5] was 149.67 MEQ/L. The “TOTAL BILIRUBIN” value [5] was 0.53 mg/dL, the “TOTAL PROTEIN” value [5] was 6.23 G/DL and the BASOPHIL [6] was 0%. For the same compound, the EOSINOPHIL [6] was 0%, the “ERYTHROCYTE COUNT” value [6] was 6.33 x10E6/uL and the HEMATOCRIT [6] was 38.27%. The HEMOGLOBIN [6] was 15.1 G/DL, the “LEUKOCYTE COUNT” value [6] was 12.9 x10E3/uL and the LYMPHOCYTE [6] was 81.33%. The “MEAN CORPUSCULAR HEMOGLOBIN” value [6] was 23.87 pg, the “MEAN CORPUSCULAR HEMOGLOBIN CONCENTRATION” value [6] was 39.47 G/DL and the “MEAN CORPUSCULAR VOLUME” value [6] was 60.5 fL. The MONOCYTE [6] was 2.33%, the NEUTROPHIL [6] was 16.33% and the “PLATELET COUNT” value [6] was 999.67 x10E3/uL. The “ALANINE AMINOTRANSFERASE” value [6] was 37 u/L, the ALBUMIN [6] was 3.87 G/DL and the “ALKALINE PHOSPHATASE” value [6] was 349.67 u/L. For the same compound, the “ASPARTATE AMINOTRANSFERASE” value [6] was 67.67 u/L, the “BLOOD UREA NITROGEN” value [6] was 14 mg/dL and the CHLORIDE [6] was 104 MEQ/L. The CHOLESTEROL [6] was 70.33 mg/dL, the “CREATINE PHOSPHOKINASE” value [6] was 150.33 u/L and the CREATININE [6] was 0.7 mg/dL. The GLUCOSE [6] was 172 mg/dL, the PHOSPHORUS [6] was 10.37 mg/dL and the POTASSIUM [6] was 6.23 MEQ/L. For the same compound, the SODIUM [6] was 149.67 MEQ/L, the “TOTAL BILIRUBIN” value [6] was 0.57 mg/dL and the “TOTAL PROTEIN” value [6] was 6.2 G/DL.

Source: ChEMBL document CHEMBL3885881, “DrugMatrix”
